Laboratory results: patent publication US20240270821A1, “GIP/GLP1/GCG TRI-RECEPTOR AGONISTS AND USES THEREOF” (priority 2023, published 2024)
Like-named read-outs stand apart in the source and are kept apart here. Starred links: 1 amine or outer side, 2 acyl side, 3 side chain; linkers in the order of their positions; H or OH if unused. Non-standard residues stand in square brackets, D forms with d. Groups on a side chain read outwards from the residue. No end group written: not given here. *: point of attachment. C18 diacid = O=C(O)CCCCCCCCCCCCCCCCC(=O)*; γGlu = O=C(O)[C@H](CCC(=O)[*:2])N[*:1]; αMe4Pal = C[C@](N)(Cc1ccncc1)C(=O)O; 4Pal = N[C@@H](Cc1ccncc1)C(=O)O; αMeL = CC(C)C[C@](C)(N)C(=O)O; Aib = CC(C)(N)C(=O)O

Experiments:
Format in all cases: cell-based
hGcgR = hGcgR (Homo sapiens, UniProt P47871); assay: Functional cAMP activation in the presence of 0.1% casein (no HSA); conditions: in the presence of 0.1% casein (no HSA); geometric mean; read-out: Relative cAMP EC50, hGcgR;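 further: intracellular cAMP rise after 30 min at 37 °C, read by HTRF against a cAMP standard curve, scaled from buffer only (0%) to maximal control ligand response (100%)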
Sequence of hGcgR (P47871 26-477): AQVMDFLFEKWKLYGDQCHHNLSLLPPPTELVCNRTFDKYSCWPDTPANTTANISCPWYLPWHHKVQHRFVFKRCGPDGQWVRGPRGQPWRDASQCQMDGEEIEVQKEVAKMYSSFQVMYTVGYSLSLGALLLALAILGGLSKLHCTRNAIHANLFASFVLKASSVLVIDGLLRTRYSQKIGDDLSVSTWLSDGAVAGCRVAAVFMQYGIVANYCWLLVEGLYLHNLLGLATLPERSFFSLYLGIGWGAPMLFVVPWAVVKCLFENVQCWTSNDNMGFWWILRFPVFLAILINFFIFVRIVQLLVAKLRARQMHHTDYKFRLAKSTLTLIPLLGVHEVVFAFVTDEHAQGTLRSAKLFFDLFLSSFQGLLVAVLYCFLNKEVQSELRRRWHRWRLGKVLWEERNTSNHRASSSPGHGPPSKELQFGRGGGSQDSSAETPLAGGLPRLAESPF

hGIPR [1] = molecular target: T1, hGIPR (Homo sapiens, UniProt P48546); assay: Functional cAMP activity in the presence of 1% HSA; conditions: read-out: cAMP Rel EC50, hGIPR
T1 sequence (P48546 22-466): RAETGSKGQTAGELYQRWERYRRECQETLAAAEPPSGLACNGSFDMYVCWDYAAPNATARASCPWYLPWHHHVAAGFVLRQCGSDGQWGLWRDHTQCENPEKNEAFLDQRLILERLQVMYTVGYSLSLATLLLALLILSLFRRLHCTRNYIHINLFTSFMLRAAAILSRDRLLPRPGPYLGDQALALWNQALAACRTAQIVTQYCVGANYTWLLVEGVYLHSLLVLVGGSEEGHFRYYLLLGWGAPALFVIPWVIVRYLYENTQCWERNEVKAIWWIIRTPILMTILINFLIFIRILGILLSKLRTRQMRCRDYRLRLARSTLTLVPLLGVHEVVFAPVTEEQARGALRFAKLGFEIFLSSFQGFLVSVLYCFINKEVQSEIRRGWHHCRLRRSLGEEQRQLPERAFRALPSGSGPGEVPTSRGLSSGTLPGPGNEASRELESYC

human GcgR = human GcgR (Homo sapiens, UniProt P47871); assay: Functional cAMP activity in the presence of 1% HSA; conditions: read-out: cAMP Rel EC50, hGcgR
Sequence of human GcgR (P47871 26-477): as the sequence (P47871 26-477) above

hGIPR [2] = molecular target: T1, hGIPR; assay: Functional cAMP activation in the presence of 0.1% casein (no HSA); conditions: in the presence of 0.1% casein (no HSA); geometric mean; read-out: Relative cAMP EC50, hGIPR;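 on Relative cAMP EC50, hGIPR: intracellular cAMP rise after 30 min at 37 °C read by HTRF against a standard curve, scaled between buffer alone (0%) and top control ligand concentration (100%), four-parameter fit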;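 on Relative cAMP EC50, hGLP-1R: intracellular cAMP rise after 30 min at 37 °C read by HTRF, normalized between buffer only (0%) and maximal control ligand (100%), four-parameter variable-slope fit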
hGLP-1R [3] = molecular target: T2, hGLP-1R (Homo sapiens, UniProt P43220); assay: as above; conditions: in the presence of 0.1% casein (no HSA); geometric mean; read-out: Relative cAMP EC50, hGLP-1R;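 further: intracellular cAMP rise after 30 min at 37 °C read by HTRF, normalized between buffer only (0%) and maximal control ligand (100%), four-parameter variable-slope fit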
T2 sequence (P43220 24-463): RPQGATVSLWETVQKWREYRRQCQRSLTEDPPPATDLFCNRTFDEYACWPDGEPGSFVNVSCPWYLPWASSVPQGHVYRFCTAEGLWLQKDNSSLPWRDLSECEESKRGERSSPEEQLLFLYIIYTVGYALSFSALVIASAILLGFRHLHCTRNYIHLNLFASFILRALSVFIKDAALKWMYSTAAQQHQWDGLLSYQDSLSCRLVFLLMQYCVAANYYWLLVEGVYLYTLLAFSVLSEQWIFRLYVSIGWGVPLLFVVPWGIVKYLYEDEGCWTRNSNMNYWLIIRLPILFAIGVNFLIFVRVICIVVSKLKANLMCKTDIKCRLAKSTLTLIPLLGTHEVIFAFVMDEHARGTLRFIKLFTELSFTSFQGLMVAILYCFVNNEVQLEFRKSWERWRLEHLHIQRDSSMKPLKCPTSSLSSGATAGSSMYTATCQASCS
Experimental: After a 30-minute incubation at 37° C., the resulting increase in intracellular cAMP is quantitatively determined using the CisBio CAMP Dynamic 2 HTRF Assay Kit (62AM4PEJ). Briefly, cAMP levels within the cell are detected by adding the cAMP-d2 conjugate in cell lysis buffer followed by the antibody anti-cAMP-Eu^3+-Cryptate, also in cell lysis buffer.
Intracellular cAMP levels are determined by extrapolation using a standard curve. Dose response curves of compounds are plotted as the percentage of stimulation normalized to minimum (buffer only) and maximum (maximum concentration of each control ligand) values and analyzed using a four parameter non-linear regression fit with a variable slope (Genedata Screener 13). EC50 is the concentration of compound causing half-maximal simulation in a dose response curve. Each relative EC50 value for the Geometric mean calculation is determined from a curve fitting.

hGLP-1R [4] = molecular target: T2, hGLP-1R; assay: Functional cAMP activity in the presence of 1% HSA; conditions: read-out: cAMP Rel EC50, hGLP-1R
[5] = HEK-293 clonal cell line, in the presence of 1% HSA, geometric mean of relative EC50

Substance	EC50 (hGcgR) [nM]	EC50 (hGIPR [1]) [nM]	EC50 (human GcgR) [nM]	EC50 (hGIPR [2]) [nM]	EC50 (hGLP-1R [3]) [nM]	EC50 (hGLP-1R [4]) [nM]	EC50 (hGIPR [1]; [5]) [nM]	EC50 (human GcgR; [5]) [nM]	EC50 (hGLP-1R [4]; [5]) [nM]
Y[Aib]QGTFTSD[4Pal]SQ[αMeL]LDKK([Glu-Glu-γGlu-C18 diacid])AQ[αMe4Pal]AFIEYLIE[Aib]GPSSGAPPPSGS-NH2 [Example 895]	4.68	34	1250	0.111	3.72	599			
Y[Aib]QGTFTSD[4Pal]SQ[αMeL]LDKK([Glu-γGlu-C18 diacid])AQ[αMe4Pal]AFIEYLIAGGPSSGAPPPSGE-NH2 [Example 1086]	12	21.2	3140	0.117	1.23	496			
Y[Aib]QGTFTSD[4Pal]SQ[αMeL]LDKK([dE-dE-γGlu-C18 diacid])AQ[αMe4Pal]AFIEYLIE[Aib]GPSSGAPPPSGSE-NH2 [Example 925]	8.19	23	2500	0.147	4.19	708			
Y[Aib]QGTFTSD[4Pal]SQ[αMeL]LDKK([dE-γGlu-C18 diacid])AQ[αMe4Pal]AFIEYLIAGGPSSGAPPPSGEEE-NH2 [Example 1088]	14.8	15.6	1710	0.182	2.99	367			
Y[Aib]QGTFTSD[4Pal]SQ[αMeL]LDKK([dE-γGlu-C18 diacid])AQ[αMe4Pal]AFIEYLIE[Aib]GPSSGAPPPSGSE-NH2 [Example 924]	6.05	15.7	910	0.0798	3.12	402			
Y[Aib]QGTFTSD[4Pal]SQ[αMeL]LDKK([dE-γGlu-C18 diacid])AQ[αMe4Pal]AFIEYLIE[Aib]GPSSGAPPPSGSEE-NH2 [Example 928]	6.85	15.1	1090	0.0883	3.58	604			
Y[Aib]QGTFTSD[4Pal]SQ[αMeL]LDKK([dE-γGlu-dE-C18 diacid])AQ[αMe4Pal]AFIEYLIE[Aib]GPSSGAPPPSGS-NH2 [Example 923]	9.1	18.5	1840	0.123	6.23	870			
Y[Aib]QGTFTSD[4Pal]SQ[αMeL]LDKK([dE-γGlu-dE-C18 diacid])AQ[αMe4Pal]AFIEYLIE[Aib]GPSSGAPPPSGSEE-NH2 [Example 931]	12.2	20.8	2300	0.256	11.3	878			
Y[Aib]QGTFTSD[4Pal]SQ[αMeL]LDKK([γGlu-dE-dE-C18 diacid])AQ[αMe4Pal]AFIEYLIE[Aib]GPSSGAPPPSGSE-NH2 [Example 926]	13.2	13.5	1380	0.166	7.71	600			
Y[Aib]QGTFTSD[4Pal]SQ[αMeL]LDKK([γGlu-dE-dE-C18 diacid])AQ[αMe4Pal]AFIEYLIE[Aib]GPSSGAPPPSGSEE-NH2 [Example 930]	13	19.9	1700	0.244	11	824			
Y[Aib]QGTFTSD[4Pal]SQ[αMeL]LDKK([γGlu-γGlu-C18 diacid])AQ[αMe4Pal]AFIEYLIE[Aib]GPSSGAPPPSGS-NH2 [Example 858]	3.44	13.1	678	0.0995	1.83	258			
Y[Aib]QGTFTSD[4Pal]SQ[αMeL]LDKK([γGlu-γGlu-C18 diacid])AQ[αMe4Pal]AFIE[αMe4Pal]LIE[Aib]GPSSGAPPPSGEE-NH2 [Example 1121]	8.83			0.115	5.23		4.55	566	165
Y[Aib]QGTFTSD[4Pal]SQ[αMeL]LDKK([γGlu-γGlu-C18 diacid])AQ[αMe4Pal]AFIE[αMe4Pal]LIE[Aib]GPSSGAPPPSGSEE-NH2 [Example 1122]	10.3			0.109	5.66		4.54	474	177
